{"source": "patent US5416090A", "about": "“Method of treating inflammation” (priority 1992, dated 1995)", "key": {"[1]": {"tested_on": "5-HT induced paw swelling", "test": "Serotonin (5-HT) induced acute paw inflammation", "assay_type": "in vivo, rat (Lewis)", "settings": "FIG. 2", "procedure": "In one such model, the acute paw inflammation model, rats were treated with test compounds one hour prior to plantar injection of a 50 μl volume of a phlogistic. Animals were sacrificed and paw weights were determined at a prescribed time interval following the plantar injections. When 1% carrageenan was used as the phlogistic, the time interval between injection and sacrifice was 3 hours. When serotonin (5-hydroxytryptamine (5-HT)) was used, as the phlogistic agent the time interval was one hour. When substance P was used, the time interval was 30 minutes. The acute paw inflammation model is described in more detail in Example 3.\nMale Lewis rats (Charles River or Harlan Sprague Dawley) weighing 180 to 250 g were used in all acute inflammatory studies. Animals were maintained on a 12:12 hour light:dark cycle and were allowed ad lib access for food (Purina lab chow) and water. Experimental groups consisted of 5 or 6 rats.\nAcute paw swelling was induced by the intraplantar injection of phlogistic agents into the left hind paw, with the uninjected right hind paw serving as the comparative control. One hour after dosing with test compound, 50 μl of serotonin (Sigma; 0.005 to 0.2 mg/ml in normal saline) or substance P (Sigma; 0.01 or 0.05 mg/ml in 10% thiorphan in normal saline) or carrageenan (Marine Colloidal or Sigma Type IV; 1% in normal saline) were injected under the skin of the left hind paw, while the animal was restrained in a plastic cone. Negative controls were given 50 μl intradermal injections of normal saline (serotonin or carrageenan assays) or 10% thiorphan (substance P assays) into the left hind paw. One hour following injection of serotonin, or 30 minutes following injection of substance P, or 180 minutes following injection of carrageenan, the animals were sacrificed by CO2 asphyxiation. The right and left hind paws were cut just proximal to the tibiotarsal joint and weighed. The difference in weight between an individual animal's left and right paws were used as an indicator of tissue swelling.\nAs indicated above, test compounds are administered as a one hour pretreatment. In one series of experiments, 24 hour and 48 hour drug pretreatment periods were used. Test compounds were dosed intraperitoneally as a suspension in 1% carboxymethylcellulose."}, "Parkinsonism": {"tested_on": "Parkinsonism", "settings": "background; cited from earlier work"}, "α adrenergic receptors": {"tested_on": "α adrenergic receptors", "settings": "background; cited from earlier work"}, "[2]": {"tested_on": "carrageenan induced paw swelling", "test": "Carrageenan edema model (acute paw inflammation)", "assay_type": "in vivo, rat (Lewis)"}, "[3]": {"tested_on": "delayed type hypersensitivity (picryl chloride induced foot pad swelling)", "test": "Murine delayed type hypersensitivity (DTH) response, picryl chloride", "assay_type": "in vivo, mouse (Balb/c)", "procedure": "The activity of ergoline compounds was also evaluated in a murine delayed-type hypersensitivity (DTH) assay. The DTH assay was performed in substantial accordance with the method set forth in Example 1. Briefly, mice were sensitized by topical administration of picryl chloride on day 1 of the assay. On day 4 paw size was determined and recorded and the paw was then challenged with picryl chloride. The challenged paw was remeasured on day 5 to quantitate the DTH response via the increase in paw size.\nMale Balb/c mice (Charles River) weighing 20 to 25 g were used in all DTH studies. When adrenalectomized studies were carried out, sham surgery and adrenalectomized mice were obtained from the vendor. Animals were maintained on a 12:12 hour light:dark cycle. Mice were allowed ad lib access for food (Purina lab chow) and water (normal saline for adrenalectomized animals).\nA DTH response was assessed by measuring the degree of rear foot pad swelling induced by picryl chloride. On day 0, mice were sensitized with 100 μl of 5% picryl chloride (in ethanol), which was applied to a shaved abdomen. Negative control groups were shaved but not sensitized. On day 3, mice were anesthetized with methoxyflurane, and the baseline rear foot pad thickness was measured with a micrometer (Mitutoyo) in μ, and was recorded in duplicate. Fifty μl of picryl chloride was then applied to each pad with a pipet (Rainen) while the animal was unconscious. The negative controls also received picryl chloride at this point to control for primary irritancy. Twenty-four hours later, the mice were sacrificed by CO2 asphyxiation and each rear foot pad was again measured in duplicate, and any evidence of foot pad swelling was calculated. The mean rear foot swelling change of both pads for each animal from days 3 to 4 was used as the index of immune function in the DTH assay.\nUnless otherwise stated all animals were given four subcutaneous doses of test compound just prior to picryl chloride sensitization on day 0, on day 1 and day 2, and just prior to picryl chloride challenge on day 3. In a few experiments, compounds were administered via oral or intraperitoneal routes. All drugs were delivered as suspensions in 1% carboxy-methylcellulose (also contained 0.8% NaCl, 1% polysorbate-80, 1.4% benzyl alcohol). Carboxymethyl-cellulose (1%) was used in control injections."}, "[4]": {"tested_on": "lipoidal amine induced arthritis", "test": "Lipoidal amine induced polyarthritis (hind paw volume and weight)", "assay_type": "in vivo, rat (Lewis)", "settings": "Rattus norvegicus", "procedure": "Lipoidal amine induced polyarthritis is an animal arthritis model originally described by Chang, Y., et al. in Arthritis and Rheumatism 23:62-71 (1980). The lipoidal amine induced polyarthritis results from injection of N,N-dioctadecyl-N^1,N-bis(2-hydroxyethyl) propanediamine (7.5 mg/kg Lewis rat (220-225 g)), which is suspended in oil, intradermally at the base of the tail."}, "D-2 dopamine": {"tested_on": "D-2 dopamine", "settings": "background; cited from earlier work"}, "[5]": {"settings": "Table 1, single oral dose 0.3 mg/kg"}, "[6]": {"settings": "Table 1, single oral dose 1.0 mg/kg"}, "[7]": {"settings": "Table 1, single oral dose 3.0 mg/kg"}, "[8]": {"settings": "Table 1, single oral dose 10.0 mg/kg"}, "[9]": {"settings": "Table 2, single oral dose 0.01 mg/kg"}, "[10]": {"settings": "Table 2, single oral dose 0.03 mg/kg"}, "[11]": {"settings": "Table 2, single oral dose 0.1 mg/kg"}, "[12]": {"settings": "Table 2, single oral dose 0.3 mg/kg"}}, "note": "Read-outs that look alike come from different tables or passages of the source.", "data": [{"smiles": "CCCN1C[C@H](CSC)C[C@@H]2c3cccc4[nH]cc(c34)C[C@H]21", "note": "[Compound 2]", "values": [{"measurement": "effect on 5-HT induced paw swelling", "setting": "[1]", "result": "diminish 5-HT induced paw swelling"}, {"measurement": "effect on symptoms of Parkinsonism", "setting": "Parkinsonism", "result": "effective in the treatment of some symptoms of Parkinsonism"}, {"measurement": "action at α adrenergic receptors", "setting": "α adrenergic receptors", "result": "act at α adrenergic receptors"}, {"measurement": "% Inhibition", "setting": "[2]; [5]", "result": 60, "unit": "%"}, {"measurement": "Paw Weight Difference", "setting": "[2]; [5]", "result": "0.290 ± 0.028", "unit": "g"}, {"measurement": "% Inhibition", "setting": "[2]; [6]", "result": 60, "unit": "%"}, {"measurement": "Paw Weight Difference", "setting": "[2]; [6]", "result": "0.295 ± 0.019", "unit": "g"}, {"measurement": "% Inhibition", "setting": "[2]; [7]", "result": 60, "unit": "%"}, {"measurement": "Paw Weight Difference", "setting": "[2]; [7]", "result": "0.292 ± 0.017", "unit": "g"}, {"measurement": "% Inhibition", "setting": "[2]; [8]", "result": 60, "unit": "%"}, {"measurement": "Paw Weight Difference", "setting": "[2]; [8]", "result": "0.293 ± 0.018", "unit": "g"}, {"measurement": "% Inhibition", "setting": "[2]; [9]", "result": 1, "unit": "%"}, {"measurement": "Paw Weight Difference", "setting": "[2]; [9]", "result": "0.820 ± 0.033", "unit": "g"}, {"measurement": "% Inhibition", "setting": "[2]; [10]", "result": 0, "unit": "%"}, {"measurement": "Paw Weight Difference", "setting": "[2]; [10]", "result": "1.009 ± 0.056", "unit": "g"}, {"measurement": "% Inhibition", "setting": "[2]; [11]", "result": 11, "unit": "%"}, {"measurement": "Paw Weight Difference", "setting": "[2]; [11]", "result": "0.751 ± 0.045", "unit": "g"}, {"measurement": "% Inhibition", "setting": "[2]; [12]", "result": 63, "unit": "%"}, {"measurement": "Paw Weight Difference", "setting": "[2]; [12]", "result": "0.313 ± 0.045", "unit": "g"}, {"measurement": "anti-inflammatory properties", "setting": "[2]; Tables 1 and 2", "result": "significant anti-inflammatory properties"}, {"measurement": "reduction of paw swelling (DTH)", "setting": "[3]; 1 mg/kg", "result": "significantly reduced paw swelling"}, {"measurement": "reduction of paw swelling (DTH)", "setting": "[3]; 3 mg/kg", "result": "significantly reduced paw swelling"}, {"measurement": "reduction of paw swelling (DTH)", "setting": "[3]; 10 mg/kg", "result": "significantly reduced paw swelling"}, {"measurement": "minimal effective dose", "setting": "[4]; read-out: dosage giving statistically significant decrease in paw volume, FIG. 1 Panel A", "result": "≥ 3", "unit": "mg/kg"}, {"measurement": "minimal effective dose", "setting": "[4]; read-out: dosage giving statistically significant decrease in paw weight, FIG. 1 Panel B", "result": "≥ 3", "unit": "mg/kg"}, {"measurement": "D-2 dopamine agonist activity", "setting": "D-2 dopamine", "result": "D-2 dopamine agonists"}]}]}
